Test results published in ChEMBL document CHEMBL5136973, “Update on the Development of MNK Inhibitors as Therapeutic Agents” (J Med Chem, 2022).
pIC50, pKi: −log10 of the molar value.

Columns and labels:
[1] = molecular target: T1, MAP kinase-interacting serine/threonine-protein kinase 2 (Homo sapiens, UniProt Q9HBH9); assay: Inhibition of Mnk2 (unknown origin)
Target sequence in this assay (Q9HBH9 whole entry): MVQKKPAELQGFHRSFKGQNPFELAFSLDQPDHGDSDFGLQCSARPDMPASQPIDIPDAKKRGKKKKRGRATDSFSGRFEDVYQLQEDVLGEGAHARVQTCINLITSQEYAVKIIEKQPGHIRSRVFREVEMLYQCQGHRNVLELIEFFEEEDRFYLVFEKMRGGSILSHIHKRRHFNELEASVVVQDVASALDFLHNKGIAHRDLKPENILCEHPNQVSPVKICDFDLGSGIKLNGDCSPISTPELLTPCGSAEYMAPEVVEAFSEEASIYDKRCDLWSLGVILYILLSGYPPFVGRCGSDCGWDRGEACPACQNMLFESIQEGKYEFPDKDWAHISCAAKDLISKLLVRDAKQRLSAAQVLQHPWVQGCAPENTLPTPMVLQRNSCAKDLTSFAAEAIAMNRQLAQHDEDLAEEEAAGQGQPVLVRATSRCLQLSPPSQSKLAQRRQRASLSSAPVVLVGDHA

[2] = molecular target: T2, MAP kinase-interacting serine/threonine-protein kinase 1 (Homo sapiens, UniProt Q9BUB5); assay: Inhibition of Mnk1 (unknown origin); details: for IC50: read-out: pIC50 (converted)
T2 sequence (Q9BUB5 whole entry): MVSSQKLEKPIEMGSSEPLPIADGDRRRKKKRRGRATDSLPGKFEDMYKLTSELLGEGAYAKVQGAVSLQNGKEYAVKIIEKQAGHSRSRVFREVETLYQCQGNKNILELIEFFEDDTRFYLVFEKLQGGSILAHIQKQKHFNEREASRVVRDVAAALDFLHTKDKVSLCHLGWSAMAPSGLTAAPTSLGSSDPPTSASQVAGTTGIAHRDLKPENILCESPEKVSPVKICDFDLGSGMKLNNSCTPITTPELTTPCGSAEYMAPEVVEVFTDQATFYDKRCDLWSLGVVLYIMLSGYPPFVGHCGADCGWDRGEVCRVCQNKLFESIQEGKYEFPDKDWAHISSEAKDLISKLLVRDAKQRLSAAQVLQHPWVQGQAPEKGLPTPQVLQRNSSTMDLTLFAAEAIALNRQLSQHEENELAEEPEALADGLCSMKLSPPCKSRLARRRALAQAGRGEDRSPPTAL

[3] = molecular target: T2, MAP kinase-interacting serine/threonine-protein kinase 1; assay: Inhibition of Mnk1 (unknown origin) using eIF4E-derived (D 202 TATKSGSTTKNR 214) peptide as substrate incubated for 90 mins by IMAP TR-FRET assay
[4] = molecular target: T1, MAP kinase-interacting serine/threonine-protein kinase 2; assay: Inhibition of His-tagged Mnk2 (unknown origin) using eIF4E-derived (D 202 TATKSGSTTKNR 214) peptide as substrate incubated for 90 mins by IMAP TR-FRET assay
Target sequence in this assay (Q9HBH9 whole entry): as the sequence (Q9HBH9 whole entry) above

[5] = molecular target: T1, MAP kinase-interacting serine/threonine-protein kinase 2; assay: Binding affinity to His-tagged Mnk2 (unknown origin) using D 202 TATKSGSTTKNR 214 as substrate by TR-FRET assay
Target sequence in this assay (Q9HBH9 whole entry): as above

MV4-11 [6] = assay: Growth inhibition of human MV4-11 cells incubated for 72 hrs by multilabel plate reader method; type: functional
[7] = Growth inhibition of human Acute myeloid leukemic cells incubated for 72 hrs by multilabel plate reader method; type: functional; details: Acute myeloid leukemic cell
[8] = molecular target: T2, MAP kinase-interacting serine/threonine-protein kinase 1; assay: Inhibition of inactive form of MNK1 (unknown origin)
[9] = Volume of distribution at steady state in male RH:Foxn1 nude rat; type: ADME; details: in vivo, read-out: Vdss
[10] = Volume of distribution at steady state in female NMRI-nu/nu mouse; type: ADME; details: in vivo, read-out: Vdss
[11] = Clearance in male RH:Foxn1 nude rat; type: ADME; details: in vivo
[12] = Clearance in female NMRI-nu/nu mouse; type: ADME; details: in vivo
[13] = Intermediate elimination half life in female NMRI-nu/nu mouse; type: ADME; details: in vivo, read-out: beta t1/2 (converted)
[14] = Intermediate elimination half life in male RH:Foxn1 nude rat; type: ADME; details: in vivo, read-out: beta t1/2 (converted)
[15] = Oral bioavailability in female NMRI-nu/nu mouse; type: ADME, organism-based; details: in vivo
[16] = Oral bioavailability in male RH:Foxn1 nude rat; type: ADME, organism-based; details: in vivo
[17] = Antitumor activity against human Lu7462 patient-derived NSCLC cells xenografted in female NMRI-nu/nu mouse assessed as T/C ratio at 200 mg/kg, po, qd for 94 days; type: functional; details: time 94 day
A2780 = assay: Antiproliferative activity against human A2780 cells; type: functional
SK-OV-3 = assay: Antiproliferative activity against human SK-OV-3 cells; type: functional
PC-3 = assay: Antiproliferative activity against human PC-3 cells; type: functional
MOLM-13 = assay: Antiproliferative activity against human MOLM-13 cells; type: functional
MV4-11 [18] = assay: Induction of cell cycle arrest in human MV4-11 cells assessed as increase in sub G1/G2 DNA content at 20 uM (reference value: 64%); type: functional
[19] = molecular target: T2, MAP kinase-interacting serine/threonine-protein kinase 1; assay: Inhibition of Mnk1 (unknown origin) by ADP-Glo assay
[20] = molecular target: T1, MAP kinase-interacting serine/threonine-protein kinase 2; assay: Inhibition of Mnk2 (unknown origin) by ADP-Glo assay
Target sequence in this assay (Q9HBH9 whole entry): as above

MV4-11 [21] = assay: Growth inhibition of human MV4-11 cells measured after 72 hrs; type: functional
[22] = molecular target: T2, MAP kinase-interacting serine/threonine-protein kinase 1; assay: Binding affinity to Mnk1 (unknown origin)
[23] = molecular target: T1, MAP kinase-interacting serine/threonine-protein kinase 2; assay: Binding affinity to Mnk2 (unknown origin)
Target sequence in this assay (Q9HBH9 whole entry): as above

[24] = molecular target: Tyrosine-protein kinase BTK (Homo sapiens, UniProt Q06187); assay: Inhibition of FLAG-tagged BTK (unknown origin) transfected into HEK293T cells incubated for 30 mins followed by ATP addition measured after 20 mins by Western blotting analysis; type: cell-based, HEK293
Tyrosine-protein kinase BTK, sequence (Q06187 whole entry): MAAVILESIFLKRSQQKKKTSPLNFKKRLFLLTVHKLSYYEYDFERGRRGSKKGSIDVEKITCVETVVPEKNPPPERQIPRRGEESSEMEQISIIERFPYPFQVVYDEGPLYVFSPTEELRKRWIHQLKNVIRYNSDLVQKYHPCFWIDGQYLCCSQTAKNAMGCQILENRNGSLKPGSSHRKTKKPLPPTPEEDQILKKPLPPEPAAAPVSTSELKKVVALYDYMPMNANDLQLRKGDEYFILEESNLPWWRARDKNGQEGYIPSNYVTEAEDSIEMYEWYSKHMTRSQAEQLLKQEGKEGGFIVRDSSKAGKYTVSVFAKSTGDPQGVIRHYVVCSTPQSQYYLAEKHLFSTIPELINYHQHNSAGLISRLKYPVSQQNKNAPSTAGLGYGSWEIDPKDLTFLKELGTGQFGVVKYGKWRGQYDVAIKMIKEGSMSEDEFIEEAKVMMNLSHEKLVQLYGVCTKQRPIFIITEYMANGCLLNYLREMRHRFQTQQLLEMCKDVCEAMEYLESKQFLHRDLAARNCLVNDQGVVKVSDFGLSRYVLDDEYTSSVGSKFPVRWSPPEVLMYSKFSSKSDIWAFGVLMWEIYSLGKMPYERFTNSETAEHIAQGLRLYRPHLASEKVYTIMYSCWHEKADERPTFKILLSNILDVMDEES

[25] = molecular target: T2, MAP kinase-interacting serine/threonine-protein kinase 1; assay: Inhibition of FLAG-tagged Mnk1 (unknown origin) transfected into HEK293 cells incubated for 30 mins followed by ATP addition measured after 30 mins by Western blotting analysis; type: cell-based
[26] = molecular target: T1, MAP kinase-interacting serine/threonine-protein kinase 2; assay: Inhibition of FLAG-tagged Mnk2 (unknown origin) transfected into HEK293 cells incubated for 30 mins followed by ATP addition measured after 30 mins by Western blotting analysis; type: cell-based
Target sequence in this assay (Q9HBH9 whole entry): as the sequence (Q9HBH9 whole entry) above

[27] = molecular target: T3, Tyrosine-protein kinase JAK3 (Homo sapiens, UniProt P52333); assay: Inhibition of JAK3 (unknown origin)
T3 sequence (P52333 whole entry): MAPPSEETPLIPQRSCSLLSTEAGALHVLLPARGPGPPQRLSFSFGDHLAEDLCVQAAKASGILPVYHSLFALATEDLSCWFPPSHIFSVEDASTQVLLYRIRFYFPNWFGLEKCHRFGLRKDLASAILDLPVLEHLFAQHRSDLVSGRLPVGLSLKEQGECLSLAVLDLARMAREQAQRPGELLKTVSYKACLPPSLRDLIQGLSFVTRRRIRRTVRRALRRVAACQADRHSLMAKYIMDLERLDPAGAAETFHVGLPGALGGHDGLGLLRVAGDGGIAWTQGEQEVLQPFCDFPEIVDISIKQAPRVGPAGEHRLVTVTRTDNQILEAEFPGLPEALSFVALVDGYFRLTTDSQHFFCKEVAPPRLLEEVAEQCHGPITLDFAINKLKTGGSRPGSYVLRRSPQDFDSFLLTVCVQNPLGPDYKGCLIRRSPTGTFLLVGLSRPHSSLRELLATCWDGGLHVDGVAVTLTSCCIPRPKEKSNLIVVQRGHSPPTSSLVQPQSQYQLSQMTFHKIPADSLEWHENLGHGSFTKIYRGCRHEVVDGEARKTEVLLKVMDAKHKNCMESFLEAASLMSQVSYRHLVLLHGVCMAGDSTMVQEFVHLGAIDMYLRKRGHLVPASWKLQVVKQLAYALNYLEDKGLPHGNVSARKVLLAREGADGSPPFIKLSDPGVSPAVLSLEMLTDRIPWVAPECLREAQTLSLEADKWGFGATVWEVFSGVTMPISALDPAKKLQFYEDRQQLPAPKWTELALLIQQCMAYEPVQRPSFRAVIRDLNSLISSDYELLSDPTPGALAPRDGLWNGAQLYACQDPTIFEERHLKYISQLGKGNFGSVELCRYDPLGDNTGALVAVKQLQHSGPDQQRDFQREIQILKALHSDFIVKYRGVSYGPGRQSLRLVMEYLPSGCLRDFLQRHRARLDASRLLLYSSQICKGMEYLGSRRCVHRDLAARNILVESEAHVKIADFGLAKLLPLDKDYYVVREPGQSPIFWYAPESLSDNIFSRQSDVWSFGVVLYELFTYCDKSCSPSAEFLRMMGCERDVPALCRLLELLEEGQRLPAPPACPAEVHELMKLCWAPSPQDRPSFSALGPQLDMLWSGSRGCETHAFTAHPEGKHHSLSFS

[28] = molecular target: T1, MAP kinase-interacting serine/threonine-protein kinase 2; assay: Inhibition of MNK2 (unknown origin) at 123 nM
Target sequence in this assay (Q9HBH9 whole entry, looked up): as the sequence (Q9HBH9 whole entry) above

Cn1ccc2ncnc(Nc3ccc(F)cc3O[C@@H]3CCCOC3)c21
pIC50 [1]: 7.50
IC50 [2]: 0.0631 µM

CC(C)Oc1cc(F)ccc1Nc1ncnc2sc(C(=O)NCCN3CCNCC3)nc12
pIC50 [1]: 7.50
IC50 [2]: 0.0501 µM

CO[C@@H]1COC[C@@H]1Oc1cc(F)ccc1Nc1ncnc2cc(N=S3(=O)CCCC3)cc(Cl)c12
pIC50 [2]: 7.35

CO[C@@H]1COC[C@@H]1Oc1cc(F)ccc1Nc1ncnc2cc(N=S(C)(C)=O)cc(C)c12
pIC50 [2]: 7.10

Cc1c(C(=O)O)sc2ncnc(Nc3ccc(F)cc3OC(CF)CF)c12
pIC50 [3]: 3.83
pIC50 [4]: 4.30

CC(C)Oc1cc(C#N)ccc1Nc1ncnc2ccn(C)c12
pIC50 [1]: 7.60
IC50 [2]: 0.0501 µM

Cc1c(-c2ccnc(Nc3ccccc3OC(F)F)n2)sc(=O)n1C
pKi [5]: 6.92
GI50 (MV4-11 [6]): 0.78 µM
GI50 [7]: 0.88 µM

CN1CCC(C(=O)Nc2ncc(-c3ccccc3)s2)CC1
pIC50 [8]: 7.68

CC(C)Oc1cc(F)ccc1Nc1ncnc2cc(C(=O)NCC3CCNCC3)n(C)c12
pIC50 [1]: 7.40
IC50 [2]: 0.0398 µM

C[C@H](CN)Oc1ccc2ncc(-c3cc4ccccc4o3)n2n1
Vd [9]: 0.87 L/kg
Vd [10]: 6 L/kg
clearance [11]: 6.83 mL/min/kg
clearance [12]: 39 mL/min/kg
half-life [13]: 1.2 h
half-life [14]: 1.2 h
bioavailability [15]: 71%
bioavailability [16]: 78%
T/C [17]: 0.33

O=C1NC2(CCCCC2)n2c1c(Cl)cc(Nc1ccncn1)c2=O
GI50 (A2780): < 10 µM
GI50 (SK-OV-3): < 10 µM
GI50 (PC-3): < 10 µM
GI50 (MOLM-13): < 10 µM

COc1cc(N=S2(=O)CCC2)cc2ncnc(Nc3cccnc3O[C@H]3COC[C@H]3O)c12
pIC50 [2]: 6.98

O=C(NCC1CCNCC1)c1nc2c(N3CCc4cc(Cl)ccc43)ncnc2s1
pIC50 [1]: 8.50
IC50 [2]: 0.00316 µM

Nc1cccc2c1cnn2-c1ncnc2[nH]ccc12
Activity (MV4-11 [18]): 92%

CN(Cc1ccon1)Cc1cc(-c2ccnc3cc(Cl)ccc23)ccc1O
pIC50 [19]: 5.33
pIC50 [20]: 5.59

CC1(C)CN(c2ncnc3sc(C(=O)NCC4CCNCC4)nc23)c2ccccc21
pIC50 [1]: 8.60
IC50 [2]: 0.00316 µM

CN(C)CCCNC(=O)c1nc2c(N3CC(C)(C)c4ccccc43)ncnc2s1
pIC50 [1]: 8.40
IC50 [2]: 0.00631 µM

CN(C)CCCNC(=O)c1cc2ncnc(N3CCc4cc(F)ccc43)c2n1C
pIC50 [1]: 7.90
IC50 [2]: 0.0126 µM

CN(C)CCCNC(=O)c1nc2c(N3CCc4ccccc43)ncnc2s1
pIC50 [1]: 8.10
IC50 [2]: 0.01 µM

COc1cc(N=S(C)(=O)C(C)(C)C)cc2ncnc(Nc3ccc(F)cc3O[C@H]3COC[C@H]3O)c12 (stereo partly drawn)
pIC50 [2]: 6.48

O=C(NCC1CCNCC1)c1nc2c(N3CCc4cc(F)ccc43)ncnc2s1
pIC50 [1]: 8.40
IC50 [2]: 0.00501 µM

CC(C)Oc1cc(F)ccc1Nc1ncnc2sc(C(=O)NCC3CCNCC3)nc12
pIC50 [1]: 7.30
IC50 [2]: 0.0501 µM

Cn1ccc2ncnc(Nc3ccc(F)cc3OC(CF)CF)c21
pIC50 [1]: 7.30
IC50 [2]: 0.158 µM

CNC(=O)c1nc2c(Nc3ccc(F)cc3OC(C)C)ncnc2s1
pIC50 [1]: 7.50
IC50 [2]: 0.0501 µM

O=S1(=Nc2cc(Cl)c3c(Nc4ccc(F)cc4O[C@H]4COC[C@@H]4O)ncnc3c2)CCC1
pIC50 [2]: 7.74

Fc1ccc2c(c1)CCN2c1ncnc2cc[nH]c12
pIC50 [1]: 7.50
IC50 [2]: 0.0398 µM

Fc1ccc(Nc2ncnc3[nH]ccc23)nc1
GI50 (MV4-11 [21]): 8.19 µM
pKi [22]: 5.97
pKi [23]: 6.37

COc1ncc(C)cc1Nc1ncnc2[nH]ccc12
GI50 (MV4-11 [21]): 4.64 µM
pKi [22]: 6.13
pKi [23]: 5.88

CN(C)CCCNC(=O)c1nc2c(N3CCc4cc(F)ccc43)ncnc2s1
pIC50 [1]: 8.70
IC50 [2]: 0.00251 µM

C=CC(=O)Nc1cc(-n2c(=O)ccc3cnc4ccc(-c5cn[nH]c5)cc4c32)ccc1C
pIC50 [24]: 8.03
pIC50 [25]: 6.97
pIC50 [26]: 7.59
pIC50 [27]: 7.25

Cn1ccc2ncnc(Nc3ccc(F)cc3OC3CCCC3)c21
pIC50 [1]: 7.50
IC50 [2]: 0.126 µM

CC(C)Oc1cc(F)ccc1Nc1ncnc2cc(C(=O)NCCCN(C)C)n(C)c12
pIC50 [1]: 7.40
IC50 [2]: 0.0501 µM

Cc1ccc(C(=O)Nc2ccc(CN3CCN(C)CC3)c(C(F)(F)F)c2)cc1C#Cc1cnc2cccnn12
inhibition [28]: 32%

Cc1ncc(C(=O)Nc2ccc(CN3CCN(C)CC3)c(C(F)(F)F)c2)cc1C#Cc1cnc2cccnn12
inhibition [28]: 51%
